Earlier results on 4 compounds are cited in patent US20150283090A1, “USE OF SILICON OXIDE-BASED MATERIAL FOR THE MODIFIED RELEASE OF BIOLOGICALLY ACTIVE AGENTS” (MERCK PATENT GMBH, priority 2012, published 2015).

The conditions of series [1]: C1 silylation of MCM-41.
For series [2] the following is noted: MCM-48 and LP-la3d, pore sizes 3.6 and 5.7 nm, modified with C8 and C18 hydrocarbon chains.
For series [3] the following is noted: silica hybrid gels with methyl or propyl functionalization.

Where two headings read alike, the source gives them in different places.

`C[C@H](CS)C(=O)N1CCC[C@H]1C(=O)O` [Captopril]: in series [1], the release rate result is recorded as “decrease of release rate of Captopril with increasing degree of C1 silylation”.

Take `CC(C)Cc1ccc(C(C)C(=O)O)cc1` (centres unmarked) [ibuprofen]: the delivery rates result in series [2] is listed as “decrease of delivery rates when the surface of the material is modified”.

With `OCCN(CCO)c1nc(N2CCCCC2)c2nc(N(CCO)CCO)nc(N3CCCCC3)c2n1` [persantin], in series [3], the drug release entry is recorded as “inhibition of drug release with an increasing number of methyl or propyl functionalization”.

For `CN[C@H](CC(C)C)C(=O)N[C@H]1C(=O)N[C@@H](CC(N)=O)C(=O)N[C@H]2C(=O)N[C@H]3C(=O)N[C@H](C(=O)N[C@H](C(=O)O)c4cc(O)cc(O)c4-c4cc3ccc4O)[C@H](O)c3ccc(c(Cl)c3)Oc3cc2cc(c3O[C@@H]2O[C@H](CO)[C@@H](O)[C@H](O)[C@H]2O[C@H]2C[C@](C)(N)[C@H](O)[C@H](C)O2)Oc2ccc(cc2Cl)[C@H]1O` [vancomycin], the “release kinetics of vancomycin from SBA-15” value by setting is: (after functionalizing with octylmethoxysilane (C8)) 0.068 min-½; (non-functionalized material) 0.890 min-½.
